# Key:
# Format in all cases: biochemical
# CDK16 (WT-GST-CDK16) [1] = target: T1, CDK16 (WT-GST-CDK16) (Homo sapiens, UniProt Q00536); test: in vitro kinase assay with [γ-32P]-ATP, dose response
# T1 construct: N-terminal GST fusion, full-length, purified from E. coli; with CCNY
# [2] = target: T2, CDK16 (analog-sensitive, AS-GST-CDK16) (Homo sapiens, UniProt Q00536, F240G); test: as above
# T2 construct: N-terminal GST fusion, full-length, purified from E. coli; with CCNY
# CDK16 (WT-GST-CDK16) [3] = target: T1, CDK16 (WT-GST-CDK16); test: in vitro kinase assay, thiophosphate transfer to CCNY
# T1 sequence (Q00536 whole entry, the tested form may be a part): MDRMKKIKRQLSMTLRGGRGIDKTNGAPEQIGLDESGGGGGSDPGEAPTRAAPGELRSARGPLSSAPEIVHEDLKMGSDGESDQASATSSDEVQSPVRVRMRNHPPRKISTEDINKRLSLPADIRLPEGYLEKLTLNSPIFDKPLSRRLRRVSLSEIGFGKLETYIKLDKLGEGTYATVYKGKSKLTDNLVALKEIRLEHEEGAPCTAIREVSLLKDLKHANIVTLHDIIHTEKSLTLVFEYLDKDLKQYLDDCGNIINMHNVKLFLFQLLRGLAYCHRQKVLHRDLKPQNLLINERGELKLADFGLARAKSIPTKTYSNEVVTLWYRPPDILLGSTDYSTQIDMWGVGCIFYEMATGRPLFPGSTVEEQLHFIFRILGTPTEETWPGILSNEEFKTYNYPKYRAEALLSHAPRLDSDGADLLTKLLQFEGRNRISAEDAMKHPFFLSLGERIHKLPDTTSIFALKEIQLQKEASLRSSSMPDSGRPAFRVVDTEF
# T1 sequence (Q8ND76 2-341 partner): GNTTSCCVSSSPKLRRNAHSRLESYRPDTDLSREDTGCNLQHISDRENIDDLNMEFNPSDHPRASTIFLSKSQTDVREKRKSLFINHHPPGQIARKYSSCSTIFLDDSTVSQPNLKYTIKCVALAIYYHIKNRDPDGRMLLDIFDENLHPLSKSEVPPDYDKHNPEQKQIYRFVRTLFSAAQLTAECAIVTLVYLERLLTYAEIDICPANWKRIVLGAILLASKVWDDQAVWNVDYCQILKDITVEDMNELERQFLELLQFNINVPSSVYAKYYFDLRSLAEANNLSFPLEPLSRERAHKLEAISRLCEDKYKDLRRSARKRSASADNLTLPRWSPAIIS
# T2 sequence (Q00536 whole entry F240G, the tested form may be a part): as the sequence (Q00536 whole entry, the tested form may be a part) above, with F240G counted along it
# T2 sequence (Q8ND76 2-341 partner): as the sequence (Q8ND76 2-341 partner) above
Compound,IC50 (CDK16 (WT-GST-CDK16) [1]) [nM],IC50 [2] [nM],"in vitro kinase assay, thiophosphate transfer to CCNY (CDK16 (WT-GST-CDK16) [3])"
"Cc1cccc(Cc2nn(C(C)(C)C)c3ncnc(N)c23)c1 [3MBPP1, 1-(tert-butyl)-3-(3-methylbenzyl)-1H-pyrazolo[3,4-d]pyrimidin-4-amine]",4400,1230,
Nc1ncnc2c1ncn2[C@@H]1O[C@H](CO[P@](=O)(O)O[P@](=O)(O)O[P@@](=O)(O)S)[C@@H](O)[C@H]1O [ATPγS],,,"WT-CDK16 used ATPγS to phosphorylate GST-CCNY, it could not use the N^6-modified bulky forms"

# — article PMC6467995, “Phosphoregulation of the oncogenic protein regulator of cytokinesis 1 (PRC1) by the atypical CDK16/CCNY complex” (Experimental & Molecular Medicine, 2019)
